Data as given in ChEMBL document CHEMBL1201862, “PubChem BioAssay data set” (2004).
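Compound exposure: 48 hours, 5 concentrations, 96-well plates. GI50 marks 50% less growth.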 Calls of active or inactive are those of the source. No stated cut-off is given here; in the data, active = GI50 up to about 1.1 µM and inactive = higher.

How the values were obtained:
Assay in all cases: NCI-60 cell line screen, 48 h
[1] = tested on: SN12C
[2] = tested on: EKVX
[3] = tested on: ACHN
[4] = tested on: OVCAR-5
[5] = tested on: HCT-116
[6] = tested on: A498
[7] = tested on: OVCAR-4
[8] = tested on: PC-3
[9] = tested on: T47D
[10] = tested on: UACC-62
[11] = tested on: OVCAR-3
[12] = tested on: MDA-N
[13] = tested on: DU-145
[14] = tested on: SF-295
[15] = tested on: CCRF-CEM
[16] = tested on: HCC 2998
[17] = tested on: SR
[18] = tested on: SNB-75
[19] = tested on: Malme-3M

SMILES	GI50 [1]	GI50 [2]	GI50 [3]	GI50 [4]	GI50 [5]	GI50 [6]	GI50 [7]	GI50 [8]	GI50 [9]	GI50 [10]	GI50 [11]	GI50 [12]	GI50 [13]	GI50 [14]	GI50 [15]	GI50 [16]	GI50 [17]	GI50 [18]	GI50 [19]
CCOC(=O)N1C(=S)C(C(=O)OC)(C(=O)OC)N=C1C	> 100 µM (inactive)	> 100 µM (inactive)	> 100 µM (inactive)	> 100 µM (inactive)	> 100 µM (inactive)	> 100 µM (inactive)	> 100 µM (inactive)	> 100 µM (inactive)	> 100 µM (inactive)	> 100 µM (inactive)	> 100 µM (inactive)	> 100 µM (inactive)	> 100 µM (inactive)	> 100 µM (inactive)	> 100 µM (inactive)	> 100 µM (inactive)	> 100 µM (inactive)	> 100 µM (inactive)	
O=C1O/C(=C\c2ccc(O)c(Br)c2)C(c2ccc(O)c(Cl)c2)=C1Br	25.8 µM (inactive)	21.2 µM (inactive)	15.2 µM (inactive)	18.6 µM (inactive)	13.7 µM (inactive)	19.5 µM (inactive)	11.5 µM (inactive)	11.7 µM (inactive)	19 µM (inactive)	13.9 µM (inactive)	17.8 µM (inactive)	16.8 µM (inactive)	18.8 µM (inactive)	16.1 µM (inactive)	12.3 µM (inactive)	3.65 µM (inactive)	5.86 µM (inactive)		17.9 µM (inactive)
C/C(Nc1ccc(Cl)cc1)=C1/CCOC1=O	> 100 µM (inactive)	34.3 µM (inactive)	13.7 µM (inactive)	> 20.5 µM (inactive)		> 100 µM (inactive)	> 100 µM (inactive)	> 43.7 µM (inactive)	4.91 µM (inactive)	0.168 µM (active)	46.8 µM (inactive)	92.5 µM (inactive)	6.31 µM (inactive)	6.7 µM (inactive)	1.55 µM (inactive)	5.68 µM (inactive)	21.5 µM (inactive)	> 67.8 µM (inactive)	> 100 µM (inactive)
CN(C(=O)CCC(=O)O)c1ccccc1C(=O)O		> 100 µM (inactive)	> 100 µM (inactive)	> 100 µM (inactive)	> 100 µM (inactive)	> 100 µM (inactive)	> 100 µM (inactive)	> 100 µM (inactive)	> 100 µM (inactive)	> 100 µM (inactive)	> 100 µM (inactive)	> 100 µM (inactive)	> 100 µM (inactive)	> 100 µM (inactive)	> 100 µM (inactive)	> 100 µM (inactive)	> 100 µM (inactive)	> 100 µM (inactive)	> 100 µM (inactive)
CN(C)Cc1cc(/N=N/c2cccc(Cl)c2)ccc1O	28.6 µM (inactive)		3.29 µM (inactive)	14.9 µM (inactive)	15.2 µM (inactive)	10.9 µM (inactive)	9.86 µM (inactive)	16.6 µM (inactive)	6.7 µM (inactive)	3.61 µM (inactive)	13.6 µM (inactive)	10.2 µM (inactive)	6.9 µM (inactive)	14.7 µM (inactive)	15.8 µM (inactive)	14.3 µM (inactive)	20.1 µM (inactive)	16.1 µM (inactive)	16.7 µM (inactive)
C[C@]12CC[C@H]3[C@@H](CC=C4C[C@@H](O)CC[C@@]43C)[C@@H]1C/C(=C\c1ccncc1)[C@@H]2O	17.2 µM (inactive)	14.8 µM (inactive)	16.9 µM (inactive)	32.7 µM (inactive)	18.7 µM (inactive)	13.9 µM (inactive)	12.2 µM (inactive)	19.1 µM (inactive)	12.1 µM (inactive)	15.4 µM (inactive)	23.7 µM (inactive)	21.8 µM (inactive)	23.1 µM (inactive)	16.6 µM (inactive)	19.5 µM (inactive)	31.8 µM (inactive)	8.87 µM (inactive)	27.1 µM (inactive)	22.6 µM (inactive)
c1ccc([P+](c2ccccc2)(c2ccccc2)c2ccc([P+](c3ccccc3)(c3ccccc3)c3ccccc3)c3ccccc23)cc1	> 100 µM (inactive)		> 100 µM (inactive)	> 100 µM (inactive)	40 µM (inactive)	> 100 µM (inactive)		70.6 µM (inactive)	54.8 µM (inactive)	86.5 µM (inactive)	46.3 µM (inactive)	64.4 µM (inactive)	67.3 µM (inactive)	> 100 µM (inactive)	64.4 µM (inactive)	49.2 µM (inactive)	< 0.01 µM (active)	70.1 µM (inactive)	> 100 µM (inactive)
Cn1cnc2c(NCc3ccccc3)nc(NCCO)nc21 [OLOMOUCINE]	90.2 µM (inactive)	94.4 µM (inactive)	35.9 µM (inactive)	53 µM (inactive)	34.8 µM (inactive)	103 µM (inactive)	94.2 µM (inactive)	98.2 µM (inactive)	50.5 µM (inactive)	32.6 µM (inactive)		79.4 µM (inactive)	34.1 µM (inactive)	41.1 µM (inactive)	54.6 µM (inactive)	79.1 µM (inactive)	29.7 µM (inactive)	21.3 µM (inactive)	98.2 µM (inactive)
